# According to patent US10253085B2, “CD31 peptides for the treatment of thrombotic or autoimmune disorders” (INSERM (INSTITUT NATIONAL DE LA SANTE ET DE LA RECHERCHE …, priority 2008, dated 2019):
# Residues, ends and D or L forms follow the SMILES beside them.
# Tests used:
# [1] = test system: apolipoprotein E^−/− mice; test: Angiotensin II infusion into aged apolipoprotein E-/- mice: atherosclerotic lesion size and aneurysm formation; format: in vivo, mouse
# Description: Male 28-week old apolipoprotein E^−/− mice (n=8-10 mice/group) from our breeding facility were maintained on a regular chow diet and kept under standard conditions. Acceleration of atherosclerosis and aneurysm formation was induced by subcutaneous angiotensin II (Sigma, #A9525) infusion (1 mg/kg/d) for 28 days using osmotic minipumps (Alzet, #2004) as previously described (Daugherty et al. J Clin Invest 105:1605-1612). All experiments were approved by our institutional Ethical committee. Atherosclerotic lesion size was measured as previously described (Caligiuri et al. 2005 Arterioscler Thromb Vasc Biol 25:1659-1664). These experiments were repeated twice with similar results.
# [2] = test system: MMP-2/9 (gelatinase) activity in bone-marrow derived macrophages; test: Macrophage gelatinase (MMP-2/9) activity; format: cell-based, mouse; conditions: peptide 50 μM
# Description: (§1) CD8^+ T cell-mediated cytolytic activity against allogeneic mouse aortic smooth muscle cells and measurement of macrophage gelatinase (MMP-2/9) activity were performed as previously described for human cells in Caligiuri et al. (2006 Arterioscler Thromb Vasc Biol 26:618-623) using kits and reagents from Invitrogen. Briefly, primary cultures of FVB/N mouse aorta smooth muscle cells were labelled with the lipophylic tracer DIO (green) and co-cultured for 3 hours with CD8+ T cell-enriched spleen cells from C57Bl/6 mice (n=3 scramble peptide and n=3 peptide 551-574, 50 μM). Cytolysis was evaluated by intracellular accumulation of propidium iodide (PI). Cells were analysed by flow cytometry and the % of cytolysis was calculated by expressing the number of dead (PI+) cells among the target (DIO+) cells. Intracellular MMP-2/9 (gelatinase) activity was measured by flow cytometry in 7-day bone-marrow derived macrophages from C57Bl/6 mice (n=3 scramble peptide and n=3 peptide 551-574, 50 μM) three hours after the incorporation of OregonGreen® gelatine (MFI). […] (^3H) thymidine (0.5 μCi/well) was added for the last 16 hours and proliferation evaluated using a Tomtec harvester and analysis on a Wallac micro beta counter. Data are expressed as mean±SEM of cpm in triplicates.
# [3] = test system: allogeneic mouse aortic smooth muscle cells; test: CD8+ T cell-mediated cytolytic activity against allogeneic smooth muscle cells; format: cell-based; conditions: peptide 50 μM, 3 hours co-culture
# Description: as §1
# [4] = test system: spleen cells from CD31^−/− mice; test: Proliferation in response to TCR stimulation, CD31-/- spleen cells; format: cell-based, mouse
# Description: (§2) CD8^+ T cell-mediated cytolytic activity against allogeneic mouse aortic smooth muscle cells and measurement of macrophage gelatinase (MMP-2/9) activity were performed as previously described for human cells in Caligiuri et al. (2006 Arterioscler Thromb Vasc Biol 26:618-623) using kits and reagents from Invitrogen. Briefly, primary cultures of FVB/N mouse aorta smooth muscle cells were labelled with the lipophylic tracer DIO (green) and co-cultured for 3 hours with CD8+ T cell-enriched spleen cells from C57Bl/6 mice (n=3 scramble peptide and n=3 peptide 551-574, 50 μM). Cytolysis was evaluated by intracellular accumulation of propidium iodide (PI). Cells were analysed by flow cytometry and the % of cytolysis was calculated by expressing the number of dead (PI+) cells among the target (DIO+) cells. Intracellular MMP-2/9 (gelatinase) activity was measured by flow cytometry in 7-day bone-marrow derived macrophages from C57Bl/6 mice (n=3 scramble peptide and n=3 peptide 551-574, 50 μM) three hours after the incorporation of OregonGreen® gelatine (MFI). T-cell proliferation was performed using either human peripheral blood mononuclear cells of spleen cells from C57Bl/6 (CD31^+/+) and CD31^−/− mice (Charles River France) as previously described (Caligiuri et al. 2005 Arterioscler Thromb Vasc Biol 25:1659-1664). Briefly, cells were plated in triplicates at 0.2×10^6 cells/well in a U bottom 96-well plate in complete medium (RPMI 1640, 1% pyruvate, 1% glutamine, 1% penicillin-streptomicyne-fungizone, 10% decomplemented fetal calf serum, all from Invitrogen) containing 1 μg/ml anti-mouse CD3/CD28 or 5 μg/ml anti-human CD3 antibodies (BD) as appropriate. CD31 (551-574) and scramble peptide at 25, 50 and 100 μM final concentration were deposited in the wells just before cell plating. Plated cells were cultured for 72 hours in 5% CO2 at 37° C. (^3H) thymidine (0.5 μCi/well) was added for the last 16 hours and proliferation evaluated using a Tomtec harvester and analysis on a Wallac micro beta counter. Data are expressed as mean±SEM of cpm in triplicates.
# [5] = test system: spleen cells from C57Bl/6 (CD31^+/+) mice; test: Proliferation in response to TCR stimulation, CD31+/+ spleen cells; format: cell-based, mouse; conditions: peptide 25, 50, 100 μM, scramble peptide 100 μM
# Description: as §2
smiles,measurement,setting,value
CSCC[C@H](NC(=O)[C@H](CO)NC(=O)[C@@H](N)CO)C(=O)N[C@@H](CCCNC(=N)N)C(=O)N[C@H](C(=O)N[C@@H](CO)C(=O)N1CCC[C@H]1C(=O)N[C@@H](CCCNC(=N)N)C(=O)N[C@@H](CO)C(=O)N[C@@H](CO)C(=O)N[C@H](C(=O)N[C@@H](CC(C)C)C(=O)N[C@@H](C)C(=O)N[C@H](C(=O)N[C@@H](CCCNC(=N)N)C(=O)N[C@H](C(=O)N[C@@H](Cc1ccccc1)C(=O)N[C@@H](CC(C)C)C(=O)N[C@@H](C)C(=O)N1CCC[C@H]1C(=O)N[C@@H](Cc1c[nH]c2ccccc12)C(=O)N[C@@H](CCCCN)C(=O)N[C@@H](CCCCN)C(=O)O)C(C)C)C(C)C)[C@@H](C)O)[C@@H](C)O [peptide 551-574] (H-SSMRTSPRSSTLAVRVFLAPWKK-OH),formation of atherothrombotic abdominal aortic aneurysms (AAA),[1]; daily subcutaneous administration of 50 μM,prevented
same,acceleration of plaque growth in the aortic root,"[1]; daily subcutaneous administration of 50 μM, 28 days angiotensin II",prevented
same,mice with abdominal aortic aneurysm (AAA) present,"[1]; peptide-treated mice, both experiments (Exp #1, Exp #2), controls 8/10 and 6/8",1/8
same,activity of matrix degrading enzymes (MMP-2/9) in bone-marrow derived macrophages,[2],inhibited
same,CD8+ T cell-dependent cytolysis of murine aortic smooth muscle cells,[3],inhibited
same,proliferation of CD31-/- spleen cells,"[4]; highest dose, 100 μM",effect at 100 μM dose also on cells lacking CD31
same,proliferation of CD31-/- spleen cells,"[4]; highest dose, 100 μM, listed as mouse CD31 peptide 551-574",only the highest dose of the peptide affect proliferation
same,proliferation of CD31-/- spleen cells,[4]; low dose of the peptide,no effect
same,proliferation of CD31+/+ spleen cells in response to TCR stimulation,[5],inhibits in a dose-dependent manner
same,proliferation of CD31+/+ spleen cells in response to TCR stimulation,[5]; listed as mouse CD31 peptide 551-574,dose-dependent inhibition
